We go through 28 compounds from patent US20100280070A1, “NOVEL TETRAHYDROQUINOLINES AS AROMATASE INHIBITORS” (priority 2008, published 2010).

Each structure is given as a SMILES string.

One test deals with T1, aromatase (Homo sapiens, UniProt P11511).
T1 sequence (P11511 1-503): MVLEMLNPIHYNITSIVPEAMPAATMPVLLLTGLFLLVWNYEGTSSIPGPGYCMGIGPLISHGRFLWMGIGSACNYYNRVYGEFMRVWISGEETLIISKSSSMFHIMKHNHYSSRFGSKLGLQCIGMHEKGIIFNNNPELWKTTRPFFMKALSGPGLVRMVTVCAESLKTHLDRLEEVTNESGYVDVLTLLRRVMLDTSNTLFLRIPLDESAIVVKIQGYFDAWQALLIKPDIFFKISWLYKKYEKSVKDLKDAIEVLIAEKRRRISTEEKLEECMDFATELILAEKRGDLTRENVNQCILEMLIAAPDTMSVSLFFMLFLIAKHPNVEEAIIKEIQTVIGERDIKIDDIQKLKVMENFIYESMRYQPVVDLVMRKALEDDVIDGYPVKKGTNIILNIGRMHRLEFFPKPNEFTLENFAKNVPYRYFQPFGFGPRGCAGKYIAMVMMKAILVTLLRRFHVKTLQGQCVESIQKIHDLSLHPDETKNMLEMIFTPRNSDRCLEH
Test: not given
As to conditions: mammary fibroblast cultures; Aminoglutethimide = 1; cited from earlier work.
For the compound `CC(C)(C#N)c1cc(Cn2cncn2)cc(C(C)(C)C#N)c1` [Anasatrozole], the “RP, mammary fibroblast cultures” value is 570. Regarding `N#Cc1ccc(C(c2ccc(C#N)cc2)n2cncn2)cc1` [Letrozole], the “RP, mammary fibroblast cultures” value was 10,000.

Staying with this test, now noted: read-out: IC50, mammary fibroblast cultures; cited from earlier work.
Take `C[C@]12CCC(=O)C(O)=C1CC[C@@H]1[C@@H]2CC[C@]2(C)C(=O)CC[C@@H]12` [Formestane]: the IC50 is 45 nM.

Another test deals with T1, aromatase. Description: Aromatase inhibition assay in human placental microsomes. In kind it is biochemical. The arrangement: Microsomal protein (1 mg, from human placental tissue); from tissue; host or cells: human placenta, microsomal fraction. The settings on record: inhibitor 500 nM; human placental microsomal protein; [1β-3H]androstenedione 15 nM; 15 min at 30° C.
`c1ccc(C2CC(n3ccnc3)c3ccccc3N2)cc1` (stereo not shown) [Compound 6a, 2-Phenyl-4-imidazol-1-yl-1,2,3,4-tetrahydro-quinoline] displayed an inhibition at 0.5 µM of 61.8%. The same measure, in the same setting: for `Cc1ccc(C2CC(n3ccnc3)c3ccccc3N2)cc1` (stereo not shown) [Compound 6b, 2-(p-Tolyl)-4-imidazol-1-yl-1,2,3,4-tetrahydro-quinoline] the value was 67.4%. On the same count and under the same terms, for `COc1ccc(C2CC(n3ccnc3)c3ccccc3N2)cc1` (stereo not shown) [Compound 6c, 2-(4-Methoxyphenyl)-4-imidazol-1-yl-1,2,3,4-tetrahydro-quinoline] the value was 53.1%; for `Clc1ccc(C2CC(n3ccnc3)c3ccccc3N2)cc1` (stereo not shown) [Compound 6d, 2-(4-Chlorophenyl)-4-imidazol-1-yl-1,2,3,4-tetrahydro-quinoline], 87.4%.

Consider `Brc1ccc(C2CC(n3ccnc3)c3ccccc3N2)cc1` (stereo not shown) [Compound 6e, 2-(4-Bromophenyl)-4-imidazol-1-yl-1,2,3,4-tetrahydro-quinoline], for which the inhibition at 0.5 µM came out at 89.7%. Regarding `N#Cc1ccc(C2CC(n3ccnc3)c3ccccc3N2)cc1` (stereo not shown) [Compound 6f, 4-(4-Imidazol-1-yl-1,2,3,4-tetrahydro-quinolin-2-yl)-benzonitrile], the inhibition at 0.5 µM amounted to 84.3%. On the same count and under the same terms, the result for `Fc1ccc(C2CC(n3ccnc3)c3ccccc3N2)cc1` (stereo not shown) [Compound 6g, 2-(4-Fluorophenyl)-4-imidazol-1-yl-1,2,3,4-tetrahydro-quinoline] reads 80.5%; that for `c1ccc(C2CC(n3cncn3)c3ccccc3N2)cc1` (stereo not shown) [Compound 6h, 2-Phenyl-4-[1,2,4]triazol-1-yl-1,2,3,4-tetrahydro-quinoline], 11.2%; that for `Cc1ccc(C2CC(n3cncn3)c3ccccc3N2)cc1` (stereo not shown) [Compound 6i, 2-(p-Tolyl)-4-[1,2,4]triazol-1-yl-1,2,3,4-tetrahydro-quinoline], 13.6%. `COc1ccc(C2CC(n3cncn3)c3ccccc3N2)cc1` (stereo not shown) [Compound 6j, 2-(4-Methoxyphenyl)-4-[1,2,4]triazol-1-yl-1,2,3,4-tetrahydro-quinoline] gave an inhibition at 0.5 µM of 12.8%.

The compound `Clc1ccc(C2CC(n3cncn3)c3ccccc3N2)cc1` (stereo not shown) [Compound 6k, 2-(4-Chlorophenyl)-4-[1,2,4]triazol-1-yl-1,2,3,4-tetrahydro-quinoline] came in with an inhibition at 0.5 µM of 41.9%. As to `Brc1ccc(C2CC(n3cncn3)c3ccccc3N2)cc1` (stereo not shown) [Compound 6l, 2-(4-Bromophenyl)-4-[1,2,4]triazol-1-yl-1,2,3,4-tetrahydro-quinoline], at 0.5 µM the inhibition was 43.9%. Still for that read-out and setting: the result for `N#Cc1ccc(C2CC(n3cncn3)c3ccccc3N2)cc1` (stereo not shown) [Compound 6m, 4-(4-[1,2,4]Triazol-1-yl-1,2,3,4-tetrahydro-quinolin-2-yl)-benzonitrile] reads 36.1%; that for `Fc1ccc(C2CC(n3cncn3)c3ccccc3N2)cc1` (stereo not shown) [Compound 6n, 2-(4-Fluorophenyl)-4-[1,2,4]triazol-1-yl-1,2,3,4-tetrahydro-quinoline], 19.5%. On to `O=c1c(Cc2ccncc2)c(-c2ccccc2)[nH]c2ccccc12` [Compound 10a, 2-Phenyl-3-((pyridin-4-yl)methyl)quinolin-4(1H)-one], for which the inhibition at 0.5 µM is 7.2%. Same read-out and setting: the result for `Cc1ccc(-c2[nH]c3ccccc3c(=O)c2Cc2ccncc2)cc1` [Compound 10b, 2-(p-Tolyl)-3-((pyridin-4-yl)methyl)quinolin-4(1H)-one] reads 3.1%; that for `COc1ccc(-c2[nH]c3ccccc3c(=O)c2Cc2ccncc2)cc1` [Compound 10c, 2-(4-Methoxyphenyl)-3-((pyridin-4-yl)methyl)quinolin-4(1H)-one], 0.7%; that for `O=c1c(Cc2ccncc2)c(-c2ccc(Cl)cc2)[nH]c2ccccc12` [Compound 10d, 2-(4-Chlorophenyl)-3-((pyridin-4-yl)methyl)quinolin-4(1H)-one], 13.7%. Same read-out and setting: the result for `O=c1c(Cc2ccncc2)c(-c2ccc(Br)cc2)[nH]c2ccccc12` [Compound 10e, 2-(4-Bromophenyl)-3-((pyridin-4-yl)methyl)quinolin-4(1H)-one] reads 8.2%; that for `N#Cc1ccc(-c2[nH]c3ccccc3c(=O)c2Cc2ccncc2)cc1` [Compound 10f], 1.8%; that for `O=c1c(Cc2ccncc2)c(-c2ccc(F)cc2)[nH]c2ccccc12` [Compound 10g, 2-(4-Fluorophenyl)-3-((pyridin-4-yl)methyl)quinolin-4(1H)-one], 11.8%. Same read-out and setting: for `O=c1c(Cc2ccncc2)c(-c2ccccc2)[nH]c2c(Br)cc(Br)cc12` [Compound 10h, 6,8-Dibromo-2-phenyl-3-((pyridin-4-yl)methyl)quinolin-4(1H)-one] the value was 27.3%; for `Cc1ccc(-c2[nH]c3c(Br)cc(Br)cc3c(=O)c2Cc2ccncc2)cc1` [Compound 10i, 6,8-Dibromo-2-(p-tolyl)-3-((pyridin-4-yl)methyl)quinolin-4(1H)-one], 22.3%.

Take `COc1ccc(-c2[nH]c3c(Br)cc(Br)cc3c(=O)c2Cc2ccncc2)cc1` [Compound 10j, 6,8-Dibromo-2-(4-Methoxyphenyl)-3-((pyridin-4-yl)methyl)quinolin-4(1H)-one]: testing at 0.5 µM gave an inhibition of 40.5%. Same read-out and setting: the result for `O=c1c(Cc2ccncc2)c(-c2ccc(Cl)cc2)[nH]c2c(Br)cc(Br)cc12` [Compound 10k, 6,8-Dibromo-2-(4-Chlorophenyl)-3-((pyridin-4-yl)methyl)quinolin-4(1H)-one] reads 55.7%.

The next test concerns the target T1, aromatase.
Test: not given
The settings on record: read-out: IC50 from human placental microsomal assay; cited from earlier work.
As for `C[C@]12CCC(=O)C(O)=C1CC[C@@H]1[C@@H]2CC[C@]2(C)C(=O)CC[C@@H]12` [Formestane], the concentration for half-maximal inhibition (IC50) is 50 nM.

The target of another test is T1, aromatase.
Test: not given
As to conditions: Aminoglutethimide = 1; cited from earlier work.
On to `CC(C)(C#N)c1cc(Cn2cncn2)cc(C(C)(C)C#N)c1` [Anasatrozole], for which the “RP, breast cancer homogenates” value was 450. For `N#Cc1ccc(C(c2ccc(C#N)cc2)n2cncn2)cc1` [Letrozole], the “RP, breast cancer homogenates” value is given as 1800.

As usually defined, the IC50 is the concentration that gives 50% inhibition. The term inhibition denotes how much of the control response was suppressed. A higher inhibition goes with a response far below the control.
